ChEMBL document CHEMBL5729030, “Compound as selective JAK inhibitor, and salt and therapeutic use thereof” (2022)

Assays:
[1] = target: T1, Tyrosine-protein kinase JAK3 (Homo sapiens, UniProt P52333); test: (§1) Inhibition of JAK: The study of the effect of compounds on the activity of purified recombinant JAK was performed by studying the inhibitory activity of the compounds on JAK from the enzymatic level. The experimental principle is to use a luminescence kinase assay to detect the ADP content produced by the reaction of JAK with the substrate Poly (4:1 Glu, Tyr) peptide: after ADP is converted to ATP, ATP can act as a substrate for the Ultra-Glo luciferase catalytic reaction, producing an optical signal. The luminescence signal is positively correlated with the amount of ADP and kinase activity. Therefore, the inhibitory effect of the compounds on the recombinant JAK was determined by observing the luminescence signal produced by the reaction of JAK and the substrate, and was expressed by IC50.
T1 sequence (P52333 whole entry): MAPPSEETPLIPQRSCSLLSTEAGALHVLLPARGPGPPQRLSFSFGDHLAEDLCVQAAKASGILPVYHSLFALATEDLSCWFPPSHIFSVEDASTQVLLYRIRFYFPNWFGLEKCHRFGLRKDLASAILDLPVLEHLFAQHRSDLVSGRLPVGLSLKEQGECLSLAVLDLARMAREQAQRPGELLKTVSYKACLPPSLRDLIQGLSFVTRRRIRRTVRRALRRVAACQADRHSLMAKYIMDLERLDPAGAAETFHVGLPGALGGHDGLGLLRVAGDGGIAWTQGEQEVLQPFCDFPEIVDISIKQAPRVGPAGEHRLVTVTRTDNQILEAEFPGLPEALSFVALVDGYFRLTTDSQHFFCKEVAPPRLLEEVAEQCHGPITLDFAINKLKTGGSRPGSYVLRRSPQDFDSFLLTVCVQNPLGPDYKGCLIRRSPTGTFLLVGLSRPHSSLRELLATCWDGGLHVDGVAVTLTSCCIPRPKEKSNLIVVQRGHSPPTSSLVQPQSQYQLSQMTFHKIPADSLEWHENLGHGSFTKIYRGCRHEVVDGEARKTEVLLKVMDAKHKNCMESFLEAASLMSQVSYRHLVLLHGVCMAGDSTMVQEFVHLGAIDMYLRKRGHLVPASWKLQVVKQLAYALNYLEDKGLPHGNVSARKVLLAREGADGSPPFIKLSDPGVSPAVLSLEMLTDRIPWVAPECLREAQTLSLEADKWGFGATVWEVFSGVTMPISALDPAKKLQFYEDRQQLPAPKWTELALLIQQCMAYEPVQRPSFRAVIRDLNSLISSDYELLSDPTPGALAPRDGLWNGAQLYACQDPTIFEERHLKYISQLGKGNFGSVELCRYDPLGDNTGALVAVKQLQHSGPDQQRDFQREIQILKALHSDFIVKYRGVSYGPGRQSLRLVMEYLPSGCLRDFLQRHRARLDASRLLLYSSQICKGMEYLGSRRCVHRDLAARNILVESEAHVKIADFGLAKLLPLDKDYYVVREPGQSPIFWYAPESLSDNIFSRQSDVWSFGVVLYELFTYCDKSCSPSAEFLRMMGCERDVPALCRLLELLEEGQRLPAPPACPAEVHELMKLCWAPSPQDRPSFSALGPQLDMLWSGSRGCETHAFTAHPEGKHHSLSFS

[2] = target: Tyrosine-protein kinase JAK2 (Homo sapiens, UniProt O60674); test: as §1
Chain of Tyrosine-protein kinase JAK2 (O60674 whole entry): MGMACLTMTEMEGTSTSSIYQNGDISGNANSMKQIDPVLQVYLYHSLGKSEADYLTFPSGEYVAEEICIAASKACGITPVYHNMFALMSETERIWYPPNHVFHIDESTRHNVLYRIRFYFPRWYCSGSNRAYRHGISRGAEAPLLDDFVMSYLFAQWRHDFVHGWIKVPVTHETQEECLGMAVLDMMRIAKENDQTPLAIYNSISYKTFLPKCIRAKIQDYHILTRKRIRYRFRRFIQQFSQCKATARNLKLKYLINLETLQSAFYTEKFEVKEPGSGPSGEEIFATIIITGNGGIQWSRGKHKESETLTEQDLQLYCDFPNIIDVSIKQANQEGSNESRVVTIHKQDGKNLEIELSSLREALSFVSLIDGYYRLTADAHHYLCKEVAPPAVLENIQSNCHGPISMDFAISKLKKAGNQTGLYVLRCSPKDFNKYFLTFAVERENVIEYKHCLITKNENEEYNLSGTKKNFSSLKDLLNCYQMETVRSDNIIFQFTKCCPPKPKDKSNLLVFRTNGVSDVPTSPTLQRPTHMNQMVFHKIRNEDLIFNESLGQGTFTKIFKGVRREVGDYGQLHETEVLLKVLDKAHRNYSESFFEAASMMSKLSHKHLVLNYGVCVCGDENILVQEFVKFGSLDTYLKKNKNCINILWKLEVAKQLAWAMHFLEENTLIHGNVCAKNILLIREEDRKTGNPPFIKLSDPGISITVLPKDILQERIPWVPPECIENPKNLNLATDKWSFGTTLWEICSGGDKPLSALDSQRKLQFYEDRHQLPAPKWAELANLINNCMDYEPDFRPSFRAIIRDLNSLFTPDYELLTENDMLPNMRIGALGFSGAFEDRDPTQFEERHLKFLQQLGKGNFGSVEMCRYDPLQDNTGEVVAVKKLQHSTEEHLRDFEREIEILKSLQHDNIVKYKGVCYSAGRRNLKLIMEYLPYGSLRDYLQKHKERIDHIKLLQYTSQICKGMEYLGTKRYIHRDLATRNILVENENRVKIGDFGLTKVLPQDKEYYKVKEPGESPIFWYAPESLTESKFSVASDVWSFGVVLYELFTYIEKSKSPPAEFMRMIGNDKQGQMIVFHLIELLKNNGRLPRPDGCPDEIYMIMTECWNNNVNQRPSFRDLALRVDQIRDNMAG

SMILES | IC50 [1] | IC50 [2]
CS(=O)(=O)C1CN(Cc2ccc(-c3cccn4nc(NC(=O)C5CC5)nc34)cc2F)C1 | > 50 nM | > 50 nM
CS(=O)(=O)C1CN(Cc2ccc(-c3cccc4nc(NC(=O)C5CC5)nn34)cc2F)C1 | > 50 nM | > 50 nM
